Measurements taken from patent US20150320756A1, “TREATMENTS OF COCCIDIOSIS WITH INTRAMUSCULAR TRIAZINE COMPOSITIONS” (CEVA SANTE ANIMALE, priority 2012, published 2015).

What was measured:
Type in all cases: in vivo
[1] = Local and general tolerance of intramuscular toltrazuril in 2 day-old piglets (Example B); details: all tested doses (i.m. 20 and 40 mg/kg)
Procedure: (§1) Protocol • Group 1: 10 piglets 2 days old were injected with once intramuscularly dose of toltrazuril C629 (Dose=20 mg toltrazuril per kg bodyweight—equivalent to 0.4 mL/Kg bodyweight) on SD0 • Group 2: 11 piglets 2 days old were injected with once intramuscularly dose of toltrazuril C629 (Dose=40 mg toltrazuril per kg bodyweight a—equivalent to 0.8 mL/kg bodyweight) on SD0 • Group 3: 9 piglets 2 days old were dosed orally with the standard commercial formulation of toltrazuril Cevazuril® (Dose=20 mg toltrazuril per kg bodyweight—equivalent to 0.4 mL/Kg bodyweight) on SD0. • Group 4: 8 piglets, left untreated.
(§2) All four (4) groups of piglets were injected on SD0 with iron injection (Gleptosil®) at the dose rate of 1 ml per piglet. 3 days after treatment (on SD3), the piglets were orally challenged with a characterised strain of Isospora suis.
(§3) The following study parameters were used to assess the efficacy of the test products: • Local and general tolerance (for Groups 1 and 2) • Occurrence of diarrhoea and faecal consistency • Oocyst excretion • Bodyweight development • Serum concentrations of toltrazuril and its metabolite toltrazuril sulfone (e.g ponazuril) in Group 1, 2 and 3.

[2] = Bodyweight development of piglets on a farm with known history of coccidiosis (Example A)
Procedure: (§4) This target animal safety and efficacy study was conducted in a farm with known history of cocciodiosis. The main objective was to study the safety and efficacy of intramuscular injection of toltrazuril in comparison to the standard oral application. • Group 1: 8 piglets 3 days old were injected by a single intramuscular dose of toltrazuril (Dose=20 mg toltrazuril per kg bodyweight equivalent to 0.4 mL/kg bodyweight) on SD0. • Group 2: 8 piglets 3 days old were injected by one intramuscular dose of toltrazuril (60 mg toltrazuril per kg bodyweight equivalent to 1.2 mL/Kg bodyweight) on SD0 • Group 3: 8 piglets 3 days old were dosed orally with the standard commercial formulation of toltrazuril Cevazuril® (Dose=20 mg toltrazuril per kg bodyweight equivalent to 0.4 mL/Kg bodyweight) on SD0 • Group 4: 12 piglets 3 days old, left untreated.
(§5) All four (4) groups of piglets were injected on SD0 with iron (Gleptosil®) at the dose rate of 1 ml per piglet.

[3] = Local and general tolerance of a single intramuscular injection of toltrazuril in 3-day old piglets (Example A)
Procedure: as §4, §5

[4] = Pharmacokinetics: serum concentrations of toltrazuril and toltrazuril sulfone in 2 day-old piglets (Example B)
Procedure: as §1, §2, §3

Isospora suis = test: Anti-coccidial efficacy in piglets orally challenged with Isospora suis (Example B)
Procedure: as §1, §2, §3

[5] = G1, G2: single i.m. 20 or 40 mg/kg on SD0, Isospora suis challenge on SD3

In the case of `Cc1cc(-n2c(=O)[nH]c(=O)n(C)c2=O)ccc1Oc1ccc(SC(F)(F)F)cc1` [toltrazuril], the Tolerance [1] is reported as “well tolerated”, the “Bodyweight gain versus control non treated piglets” value ([2]; intramuscularly treated piglets, at SD0+29 days) is reported as “+2 kg” and the Bodyweight development ([2]; single i.m. 20 or 60 mg/kg, 3-day old piglets) is reported as “normal”. The “Time to disappearance of local reaction post injection” value ([3]; piglets injected i.m. with 1.2 mL/kg bodyweight) was “less than 1 week”, the “Local reaction (oedema)” value ([3]; piglets injected i.m. with 1.2 mL/kg bodyweight (60 mg/kg)) was “limited local reaction (Oedema) in some piglets” and the General tolerance ([3]; single intramuscular doses up to 60 mg/kg, 3-day old piglets) was “well tolerated”. For the same compound, the Pain after injection ([3]; single intramuscular injection, 3-day old piglets) was “No pain”, the Absorption ([4]; after intramuscular application, piglets) was “well absorbed” and the “Toltrazuril sulfone (ponazuril) kinetics, oral (G3) versus intramuscular (G1 and G2)” value ([4]; metabolite after toltrazuril 20 mg/kg oral vs 20 or 40 mg/kg i.m.) was “not statistically different”. The “Serum level of toltrazuril sulfone” value ([4]; upon intramuscular injection of toltrazuril (FIGS. 4 and 5)) was “rapid and sustained”, the Fecal consistency (Isospora suis; [5]) was “unchanged” and the Oocyst excretion (Isospora suis; [5]) was “No oocyst excretion was observed”. The “Weight gain versus control animals (G4)” value (Isospora suis; G1, G2: single i.m. 20 or 40 mg/kg, infected piglets) was “gained more weight than the control animals”.
